Data reported in patent publication US7468457B2, “Ligand inhibitors of the RAR receptors, process for preparing same and therapeutic/cosmetic applications thereof” (Galderma Research & Development, priority 2002, dated 2008).

Experiments:
Type in all cases: cell-based
RAR GAMMA = target: T1, RAR GAMMA (Homo sapiens, UniProt P13631); experiment: Transactivation test (luciferase reporter, HeLa stable transfectants), RAR gamma; conditions: HeLa cells; for Kd: apparent Kd from Schild regression of crossed curves against reference agonist, read-out: RAR GAMMA Kd app; for IC50: inhibition at the reference agonist concentration that gives 80% activation
T1 sequence (P13631 185-454 limits assumed): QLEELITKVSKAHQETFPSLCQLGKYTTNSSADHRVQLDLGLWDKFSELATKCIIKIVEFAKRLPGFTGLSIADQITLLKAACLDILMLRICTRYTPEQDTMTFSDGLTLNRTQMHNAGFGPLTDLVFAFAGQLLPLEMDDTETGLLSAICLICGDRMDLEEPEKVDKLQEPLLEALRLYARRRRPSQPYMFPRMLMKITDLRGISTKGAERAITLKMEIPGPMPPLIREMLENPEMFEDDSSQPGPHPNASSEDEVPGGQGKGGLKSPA
Procedure: (§1) The activation of receptors with an agonist (activator) in HeLa cells leads to the expression of a reporter gene, luciferase, which, in the presence of a substrate, generates light. The activation of the receptors may thus be measured by quantifying the luminescence produced after incubating the cells in the presence of a reference agonist. The inhibitory products displace the agonist from its site, thus preventing activation of the receptor. The activity is measured by quantifying the reduction in light produced. This measurement makes it possible to determine the inhibitory activity of the compounds according to the invention.
(§2) Determination of the Kdapp:
(§3) In this study, a constant is determined which represents the affinity of the molecule for the receptor. Since this value can fluctuate depending on the basal activity and the expression of the receptor, it is referred to as the Kd apparent (KdApp).
(§4) To determine this constant, “crossed curves” of the test product against a reference agonist, 4-[2-(5,5,8,8-tetramethyl-5,6,7,8-tetrahydro-2-naphthyl)propenyl]benzoic acid, are performed in 96-well plates. The test product is used at 10 concentrations and the reference agonist at 7 concentrations. In each well, the cells are in contact with a concentration of the test product and a concentration of the reference agonist, 4-[2-(5,5,8,8-tetramethyl-5,6,7,8-tetrahydro-2-naphthyl)propenyl]benzoic acid. Measurements are also taken for the total agonist (4-[2-(5,5,8,8-tetramethyl-5,6,7,8-tetrahydro-2-naphthyl)propenyl]benzoic acid) and inverse agonist, 4-{(E)-3-[4-(4-tert-butylphenyl)-5,5,8,8-tetramethyl-5,6,7,8-tetrahydro-2-naphthyl]-3-oxopropenyl}benzoic acid, controls.
(§5) These crossed curves make it possible to determine the AC50 values (concentration at which 50% activation is observed) for the reference ligand at various concentrations of test product. These AC50 values are used to calculate the Schild regression by plotting a straight line corresponding to the Schild equation (“quantition in receptor pharmacology” Terry P. Kenakin, Receptors and Channels, 2001,7,371-385).
(§6) In the case of an antagonist, an IC50 value (concentration that inhibits 50% of the activity) is calculated by plotting the curve of the product at the concentration of the reference ligand that gives 80% activation.
(§7) The HeLa cell lines used are stable transfectants containing the plasmids ERE-βGlob-Luc-SV-Neo (reporter gene) and RAR (α, β, γ) ER-DBD-puro. These cells are inoculated into 96-well plates at a rate of 10 000 cells per well in 100 μl of DMEM medium without phenol red, and supplemented with 10% defatted calf serum. The plates are then incubated at 37° C. and 7% CO2 for 4 hours.
(§8) The various dilutions of the test products, of the reference ligand (4-[2-(5,5,8,8-tetramethyl-5,6,7,8-tetrahydro-2-naphthyl)propenyl]benzoic acid), of the 100% control (100 nM 4-[2-(5,5,8,8-tetramethyl-5,6,7,8-tetrahydro-2-naphthyl)propenyl]benzoic acid) and of the 0% control (500 nM 4-{(E)-3-[4-(4-tert-butylphenyl)-5,5,8,8-tetramethyl-5,6,7,8-tetrahydro-2-naphthyl]-3-oxopropenyl}benzoic acid) are added at a rate of 5 μl per well. The plates are then incubated for 18 hours at 37° C. and 7% CO2.
(§9) The culture medium is removed by turning over and 100 μl of a 1:1 PBS/luciferine mixture is added to each well. After 5 minutes, the plates are read using the luminescence detector.

RAR BETA = target: T2, RAR BETA (Homo sapiens, UniProt P10826); experiment: Transactivation test (luciferase reporter, HeLa stable transfectants), RAR beta; conditions: HeLa cells; for Kd: apparent Kd from Schild regression of crossed curves against reference agonist, read-out: RAR BETA Kd app; for IC50: inhibition at the reference agonist concentration that gives 80% activation
T2 sequence (P10826 183-455 limits assumed): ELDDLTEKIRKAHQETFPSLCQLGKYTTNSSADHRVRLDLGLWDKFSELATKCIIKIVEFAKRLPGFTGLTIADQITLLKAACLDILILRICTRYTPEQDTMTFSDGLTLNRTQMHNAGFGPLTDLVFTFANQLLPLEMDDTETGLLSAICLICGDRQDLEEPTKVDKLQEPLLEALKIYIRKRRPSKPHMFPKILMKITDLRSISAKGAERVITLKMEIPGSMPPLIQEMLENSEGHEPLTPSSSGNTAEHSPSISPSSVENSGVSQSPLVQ
Procedure: as §1, §2, §3, §4, §5, §6, §7, §8, §9

RAR ALPHA = target: T3, RAR ALPHA (Homo sapiens, UniProt P10276); experiment: Transactivation test (luciferase reporter, HeLa stable transfectants), RAR alpha; conditions: HeLa cells; for Kd: apparent Kd from Schild regression of crossed curves against reference agonist, read-out: RAR ALPHA Kd app; for IC50: inhibition at the reference agonist concentration that gives 80% activation
T3 sequence (P10276 183-417 limits assumed): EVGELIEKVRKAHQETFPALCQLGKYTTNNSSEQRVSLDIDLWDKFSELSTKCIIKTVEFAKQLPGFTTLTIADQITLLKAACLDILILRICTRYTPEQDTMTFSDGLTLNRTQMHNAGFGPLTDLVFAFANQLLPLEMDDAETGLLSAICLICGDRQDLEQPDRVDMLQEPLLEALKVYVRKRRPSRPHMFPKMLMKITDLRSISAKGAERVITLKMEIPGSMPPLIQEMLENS
Procedure: as §1, §2, §3, §4, §5, §6, §7, §8, §9

Kd (RAR GAMMA) [µM] | IC50 (RAR GAMMA) [µM] | Kd (RAR BETA) [µM] | IC50 (RAR BETA) [µM] | Kd (RAR ALPHA) [µM] | IC50 (RAR ALPHA) [µM] | Compound
0.015 | 0.0375 | 0.06 | 0.096 | 4 | 7 | Cc1ccc(-c2cc(C(O)C#Cc3ccc(C(=O)O)cc3)cc3c2C(C)(C)CCC3(C)C)cc1 (stereo not drawn) [Ex. 5, 4-[3-Hydroxy-3-(5,5,8,8-tetramethyl-4-p-tolyl-5,6,7,8-tetrahydro-2-naphthyl)-1-propynyl]benzoic Acid]
0.001 | 0.0025 | 0.00025 | 0.0004 | 0.001 | 0.00175 | Cc1ccc(-c2cc(C(=O)/C=C/c3ccc(C(=O)O)cc3)cc3c2C(C)(C)CCC3(C)C)cc1 [Ex. 7]
0.00025 | 0.000625 | 0.004 | 0.0064 | 0.002 | 0.0035 | CC(C)(C)c1ccc(-c2cc(C(=O)/C=C/c3ccc(C(=O)O)cc3)cc3c2C(C)(C)CCC3(C)C)cc1 [Ex. 8, 4-{(E)-3-[4-(4-tert-Butylphenyl)-5,5,8,8-tetramethyl-5,6,7,8-tetrahydro-2-naphthyl]-3-oxopropenyl}benzoic Acid]
0.03 | 0.075 | 0.5 | 0.8 | 0.25 | 0.437 | Cc1ccc(-c2cc(C(O)/C=C/c3ccc(C(=O)O)cc3)cc3c2C(C)(C)CCC3(C)C)cc1 (stereo not drawn) [Ex. 9, 4-[(E)-3-Hydroxy-3-(5,5,8,8-tetramethyl-4-p-tolyl-5,6,7,8-tetrahydro-2-naphthyl)propenyl]benzoic Acid]
